Assay [1] deals with wild type desnutrin-HA-GFP (murine) (UniProt Q8BJ56). Briefly: cell-based or functional assay.
Assay [2] has as its target T1, β3 adrenergic receptors (Mus musculus, UniProt P25962).
T1 construct: endogenous in cells; host or cells: living flox/flox and desnutrin-ASKO mice (whole animal)
Description: Oxygen consumption (VO2) by indirect calorimetry after injection of β3-agonist. The assay is classed as in vivo, mice. Conditions: intraperitoneal injection 1 mg/kg body weight. On the procedure:
Oxygen consumption (VO2) was measured using the Comprehensive Laboratory Animal Monitoring System (CLAMS; Columbus Instruments). Data were normalized to body weights. Body temperatures were assessed in 25 wk-old male mice using a RET-3 rectal probe for mice (Physitemp). […] was intraperitoneally injected into mice at 1 mg/kg body weight.
Oxygen consumption (VO2) was measured using the Comprehensive Laboratory Animal Monitoring System (CLAMS: Columbus Instruments). Data were normalized to body weights. Body temperatures were assessed using a RET-3 rectal probe for mice (Physitemp).
Since lipolysis and FAs are critical for thermogenesis, it was predicted that the severely blunted lipolysis in desnutrin-ASKO mice, would lead to impaired thermogenesis. Desnutrin-ASKO mice and flox/flox littermates were subjected to cold stress. […] To test this, a β3-agonist, […], was injected into desnutrin-ASKO and flox/flox mice and oxygen consumption was monitored.
FIGS. 2A-G. Decreased lipolysis in desnutrin-ASKO mice results in impaired thermogenesis and energy expenditure. […] F) Oxygen consumption rate (VO2) measured through indirect calorimetry. G) Oxygen consumption rate (VO2) measured through indirect calorimetry after intraperitoneal injection of CL316243. […]

In assay [3] the test system is HEK 293 cells transfected with mutant S406A-desnutrin-HA-GFP. Description: Glycerol release (lipolysis) from oleate loaded HEK 293 cells transfected with mutant S406A-desnutrin-HA-GFP. The assay is classed as cell-based. Conditions: treated with AICAR vs without. The protocol:
(§1) Gonadal fat pads or BAT from overnight fasted mice were cut into 50 mg samples and incubated at 37° C. without shaking in […] of Krebs-Ringer buffer (12 mM HEPES, 121 mM NaCl, 4.9 mM KCl, 1.2 mM MgSO4 and 0.33 mM CaCl2) containing 2% fatty acid free bovine serum albumin (BSA) and 0.1% glucose with or without 10 μM isoproterenol. Fatty acid (FA) and glycerol release were measured in aliquots from incubation buffer using the NEFA C Kit (Wako) and Free Glycerol Reagent (Sigma), respectively. […] Glycerol and fatty acid were determined using the kits described above.
(§2) The role of AMPK in lipolysis is controversial, with several reporting AMPK stimulates lipolysis and others showing it inhibits lipolysis, via phosphorylation of HSL at S563 (Daval et al., 2005; Koh et al., 2007; Lage et al., 2008; Yin et al., 2003). To determine the effect of AMPK specifically on desnutrin-mediated Lipolysis, oleate loaded HEK 293 cells, transfected with wild type desnutrin-HA-GFP, mutant S406A-desnutrin-HA-GFP or GFP control, were treated with the cell-permeable AMPK-activator, 5-amino-4-imidazolecarboxamide riboside (AICAR), and lipolysis was determined by measuring glycerol release. […] To test the effect of AMPK on lipolysis in vivo, AICAR was administered intraperitoneally to flox/flox and desnutrin-ASKO mice and then measured serum FA levels. […]

Assay [4] concerns HEK 293 cells transfected with wild type desnutrin-HA-GFP. Description: Glycerol release (lipolysis) from oleate loaded HEK 293 cells transfected with wild type desnutrin-HA-GFP. The assay is classed as cell-based. Conditions: treated with AICAR vs without. The protocol: as §1, §2
The subject of assay [5] is AMPK. Description: Effect of AMPK activation on lipolysis in vivo: serum FA levels after intraperitoneal AICAR. Further details: species or system mice. Conditions: five hours after injection. The protocol:
Fasting serum triglycerides and FAs were analyzed with Infinity Triglyceride reagent (Thermo Trace) and NEFA C kit (Wako), respectively. Serum insulin, were determined using enzyme-linked immunosorbent assay kits (Alpco).
The role of AMPK in lipolysis is controversial, with several reporting AMPK stimulates lipolysis and others showing it inhibits lipolysis, via phosphorylation of HSL at S563 (Daval et al., 2005; Koh et al., 2007; Lage et al., 2008; Yin et al., 2003). To determine the effect of AMPK specifically on desnutrin-mediated Lipolysis, oleate loaded HEK 293 cells, transfected with wild type desnutrin-HA-GFP, mutant S406A-desnutrin-HA-GFP or GFP control, were treated with the cell-permeable AMPK-activator, 5-amino-4-imidazolecarboxamide riboside (AICAR), and lipolysis was determined by measuring glycerol release. […] To test the effect of AMPK on lipolysis in vivo, AICAR was administered intraperitoneally to flox/flox and desnutrin-ASKO mice and then measured serum FA levels. […] Therefore, AMPK phosphorylates desnutrin to increase lipolysis and promote FA oxidation in adipocytes.
FIGS. 3A-N. Desnutrin ablation converts BAT to WAT, and phosphorylation of desnutrin by AMPK increases lipolysis. […] I) FA oxidation, measured by ^14CO2 production from [U^14C] palmitate, from isolated brown adipocytes (left) and white adipocytes (right) from flox/flox and desnutrin-ASKO mice (n=4). […]

T1 sequence (P25962 whole entry): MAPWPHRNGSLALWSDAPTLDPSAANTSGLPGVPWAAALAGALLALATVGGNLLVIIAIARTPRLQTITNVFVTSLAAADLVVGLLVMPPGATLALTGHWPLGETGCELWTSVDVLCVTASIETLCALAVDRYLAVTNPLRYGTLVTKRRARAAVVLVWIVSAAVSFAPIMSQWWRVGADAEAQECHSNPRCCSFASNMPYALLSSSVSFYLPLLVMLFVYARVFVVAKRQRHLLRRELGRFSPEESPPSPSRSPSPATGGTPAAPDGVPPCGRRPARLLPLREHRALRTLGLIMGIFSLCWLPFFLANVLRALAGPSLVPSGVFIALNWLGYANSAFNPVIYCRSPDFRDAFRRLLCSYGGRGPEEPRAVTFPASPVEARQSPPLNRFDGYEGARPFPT
wild type desnutrin-HA-GFP (murine), sequence (Q8BJ56 whole entry): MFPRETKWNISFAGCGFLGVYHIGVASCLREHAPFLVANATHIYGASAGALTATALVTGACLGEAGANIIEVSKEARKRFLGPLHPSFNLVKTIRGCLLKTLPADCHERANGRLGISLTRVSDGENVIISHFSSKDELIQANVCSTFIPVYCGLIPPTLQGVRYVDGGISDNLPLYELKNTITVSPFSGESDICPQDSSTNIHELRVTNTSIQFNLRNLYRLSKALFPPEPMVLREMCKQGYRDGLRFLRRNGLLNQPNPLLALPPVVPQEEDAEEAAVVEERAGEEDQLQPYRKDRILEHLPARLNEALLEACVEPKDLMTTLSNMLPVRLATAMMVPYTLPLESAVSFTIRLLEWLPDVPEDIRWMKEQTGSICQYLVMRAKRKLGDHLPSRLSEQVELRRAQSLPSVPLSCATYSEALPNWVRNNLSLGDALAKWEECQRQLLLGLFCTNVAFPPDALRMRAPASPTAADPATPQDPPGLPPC

Regarding “AMPK of HEK 293 cells, activated by AICAR”, the glycerol release from oleate loaded HEK 293 cells treated with AICAR in assay [1] came to 1.8 fold.
Regarding `C[C@H](Cc1ccc2c(c1)OC(C(=O)O)(C(=O)O)O2)NC[C@H](O)c1cccc(Cl)c1` [CL31624], the oxygen consumption entry in assay [2] (desnutrin-ASKO mice) is “no change in oxygen consumption”. Besides, the “metabolic rate as indicated by oxygen consumption” value in assay [2] (flox/flox mice) is “drastic increase in their metabolic rate”.
With `NC(=O)c1ncn([C@@H]2O[C@H](CO)[C@@H](O)[C@H]2O)c1N` [AICAR, 5-amino-4-imidazolecarboxamide riboside], the “increase in glycerol release” value in assay [3] is given as “failed to do so”; in assay [4] it was 1.8 fold. Besides, the “serum FA levels” value in assay [5] (desnutrin-ASKO mice) was “serum FA levels were unchanged”; in assay [5] (flox/flox mice) it was “increased serum FA levels”.

For the origin of these results see patent publication US20140147431A1, “Compositions and Methods for Modulating Desnutrin-Mediated Adipocyte Lipolysis” (The Regents of the University of California, priority 2010, published 2014).
